# Literature values, collected in US5346693A, “Depigmenting cosmetic or dermatological composition containing arbutoside derivatives” (L'Oreal, priority 1991, dated 1994).
# Tested on: melanocyte
smiles,measurement,value
Oc1ccc(O)cc1 [hydroquinone],cytotoxicity to the melanocyte,cytotoxic to the melanocyte
